The target in the experiment is Fc-fused MET (His-/hFc-tagged human MET ectodomain) (Homo sapiens, UniProt P08581). The experiment in a line: SPR binding kinetics of selected macrocyclic peptides to Fc-fused MET. The settings on record: for Kd / ka / kd / kd (quoted in text): SPR conditions as E1; for Kd: 1:1 binding model; for kon: pH 7.4, read-out: ka.

Where a SMILES comes first, the peptide text is derived from it. Bridges are numbered along the chain shown (N, C = ends).

Take `CC(C)C[C@@H]1NC(=O)[C@H](Cc2ccc(O)cc2)NC(=O)[C@H](Cc2c[nH]c3ccccc23)NC(=O)[C@H](CO)NC(=O)[C@H](Cc2ccc(O)cc2)NC(=O)CSC[C@@H](C(=O)NCC(N)=O)NC(=O)[C@H](Cc2ccccc2)NC(=O)[C@H](CCC(=O)O)NC(=O)[C@H](Cc2ccccc2)NC(=O)[C@H](CCCCN)NC(=O)[C@H](CCCCN)NC(=O)[C@H](Cc2c[nH]c3ccccc23)NC(=O)[C@H](CCC(N)=O)NC(=O)[C@H](C)NC(=O)[C@H](CCC(N)=O)NC(=O)[C@H](Cc2c[nH]c3ccccc23)NC(=O)[C@H](CC(N)=O)NC1=O` [6-1] ({CH2CO}-YSWYLNWQAQWKKFEFCG-NH2; thioether N-17): the affinity, expressed as Kd, was 212 nM; the “ka” value is 2.44 × 10^5 M^–1 s^–1; the kd was found to be 0.0518 s⁻¹; the “kd (quoted in text)” value is 51.8 × 10^–3 s^–1. Besides, the kon was found to be 244000 M⁻¹ s⁻¹.

As to `CC(C)C[C@@H]1NC(=O)[C@H]([C@@H](C)O)NC(=O)[C@H](CCCCN)NC(=O)[C@H](C)NC(=O)[C@H](Cc2c[nH]c3ccccc23)NC(=O)[C@H](CCCCN)NC(=O)[C@H](C)NC(=O)[C@H](C(C)C)NC(=O)[C@H](CC(N)=O)NC(=O)[C@H]([C@@H](C)O)NC(=O)[C@H](Cc2c[nH]c3ccccc23)NC(=O)[C@H](CC(N)=O)NC(=O)[C@H](Cc2ccc(O)cc2)NC(=O)[C@H](Cc2ccc(O)cc2)NC(=O)[C@H](Cc2ccccc2)NC(=O)[C@H](Cc2ccc(O)cc2)NC(=O)CSC[C@@H](C(=O)NCC(N)=O)NC1=O` [6-2] ({CH2CO}-YFYYNWTNVAKWAKTLCG-NH2; thioether N-17), the “ka” value is given as 0.725 × 10^5 M^–1 s^–1, the kd amounted to 0.0074 s⁻¹, the “kd (quoted in text)” value was 7.4 × 10^–3 s^–1 and the kon was found to be 72500 M⁻¹ s⁻¹. The “fold slower kd compared to 6–1” value (ratio of SPR kd values) is 7 fold.

Regarding `C[C@@H]1NC(=O)CNC(=O)[C@H](Cc2ccc(O)cc2)NC(=O)[C@H](CCC(=O)O)NC(=O)[C@H](CCCCN)NC(=O)[C@H](Cc2c[nH]c3ccccc23)NC(=O)[C@H](CCCNC(=N)N)NC(=O)CNC(=O)[C@H](CC(=O)O)NC(=O)[C@H](Cc2ccccc2)NC(=O)[C@H]([C@@H](C)O)NC(=O)[C@H](Cc2ccc(O)cc2)NC(=O)[C@H](Cc2ccc(O)cc2)NC(=O)[C@H](Cc2c[nH]c3ccccc23)NC(=O)[C@H](Cc2ccc(O)cc2)NC(=O)CSC[C@@H](C(=O)NCC(N)=O)NC(=O)[C@H](C)NC1=O` [8-1] ({CH2CO}-YWYYTFDGRWKEYGAACG-NH2; thioether N-17), binding was characterised by a dissociation constant (Kd) of 31 nM, the “ka” value is 13.8 × 10^5 M^–1 s^–1, the kd was determined as 0.0427 s⁻¹ and the “kd (quoted in text)” value is reported as 42.7 × 10^–3 s^–1. Further, the kon amounted to 1.38e+06 M⁻¹ s⁻¹.

As to `CC(C)[C@@H]1NC(=O)[C@H](CCCCN)NC(=O)[C@H](CC(=O)O)NC(=O)CNC(=O)[C@H](CC(=O)O)NC(=O)[C@H](CCCNC(=N)N)NC(=O)CNC(=O)[C@H](CC(N)=O)NC(=O)[C@H](Cc2c[nH]c3ccccc23)NC(=O)[C@H](Cc2c[nH]cn2)NC(=O)[C@H](Cc2ccc(O)cc2)NC(=O)[C@H](Cc2ccc(O)cc2)NC(=O)CSC[C@@H](C(=O)NCC(N)=O)NC(=O)[C@H](C(C)C)NC(=O)[C@H](C(C)C)NC(=O)[C@H](Cc2c[nH]c3ccccc23)NC(=O)[C@H](CCC(=O)O)NC1=O` [8-2] ({CH2CO}-YYHWNGRDGDKVEWVVCG-NH2; thioether N-17), binding was put at a Kd of 21.6 nM, the kd is 0.0103 s⁻¹, the “kd (quoted in text)” value was ~10 × 10^–3 s^–1 and the kon stood at 475000 M⁻¹ s⁻¹. Moreover, the “kd (quoted in text)” value (listed as 8–2) is 10.3 × 10^–3 s^–1. The “fold slower kd than other species of the E8 library” value (other species kd = ∼50 × 10^–3 s^–1) stood at 5 fold.

`C[C@@H]1NC(=O)[C@H](C)NC(=O)[C@H](CC(=O)O)NC(=O)[C@H](Cc2ccc(O)cc2)NC(=O)[C@H](CCC(=O)O)NC(=O)[C@H](CCC(=O)O)NC(=O)[C@H](Cc2c[nH]c3ccccc23)NC(=O)[C@H](CCCNC(=N)N)NC(=O)CNC(=O)[C@H](CC(=O)O)NC(=O)[C@H](Cc2ccccc2)NC(=O)[C@H]([C@@H](C)O)NC(=O)[C@H](Cc2ccc(O)cc2)NC(=O)[C@H](Cc2ccc(O)cc2)NC(=O)[C@H](Cc2c[nH]c3ccccc23)NC(=O)[C@H](Cc2ccc(O)cc2)NC(=O)CSC[C@@H](C(=O)NCC(N)=O)NC1=O` [8-3] ({CH2CO}-YWYYTFDGRWEEYDAACG-NH2; thioether N-17): the “ka” value is 2.33 × 10^5 M^–1 s^–1, the kd was 0.0464 s⁻¹, the “kd (quoted in text)” value is reported as 46.4 × 10^–3 s^–1 and the kon is 233000 M⁻¹ s⁻¹.

Turning to `CC(C)[C@@H]1NC(=O)[C@H](CO)NC(=O)CNC(=O)[C@H](CO)NC(=O)[C@H](Cc2c[nH]c3ccccc23)NC(=O)[C@H](CO)NC(=O)[C@H](Cc2ccc(O)cc2)NC(=O)[C@H](Cc2ccc(O)cc2)NC(=O)CSC[C@@H](C(=O)NCC(N)=O)NC(=O)[C@H](CO)NC(=O)[C@H](CC(N)=O)NC(=O)[C@H](Cc2c[nH]c3ccccc23)NC(=O)[C@H](CCCCN)NC(=O)[C@H](C(C)C)NC(=O)[C@H](CO)NC(=O)[C@H](CCC(=O)O)NC(=O)[C@H](CO)NC1=O` [10-1] ({CH2CO}-YYSWSGSVSESVKWNSCG-NH2; thioether N-17), the affinity, expressed as Kd, was 10.1 nM; the kd is 0.00878 s⁻¹; the “kd (quoted in text)” value is recorded as ~10 × 10^–3 s^–1; the kon is 871000 M⁻¹ s⁻¹.

In the case of `CC[C@H](C)[C@@H]1NC(=O)[C@H](Cc2ccc(O)cc2)NC(=O)CSC[C@@H](C(=O)NCC(N)=O)NC(=O)[C@H](CS)NC(=O)[C@H](CC(N)=O)NC(=O)[C@H](CS)NC(=O)[C@H](CC(N)=O)NC(=O)[C@H](Cc2c[nH]c3ccccc23)NC(=O)[C@H](CC(C)C)NC(=O)[C@H](CCCCN)NC(=O)[C@H](CO)NC(=O)[C@H](CC(N)=O)NC(=O)[C@H](Cc2ccccc2)NC(=O)[C@H](CCCNC(=N)N)NC(=O)[C@H](CC(N)=O)NC(=O)[C@H](Cc2c[nH]c3ccccc23)NC(=O)[C@H](CCC(=O)O)NC1=O` [10-4] ({CH2CO}-YIEWNRFNSKLWNCNCCG-NH2; thioether N-17), the kd was found to be 0.00809 s⁻¹ and the kon stood at 26300 M⁻¹ s⁻¹.

Consider `CC(C)C[C@@H]1NC(=O)[C@H](Cc2ccc(O)cc2)NC(=O)CSC[C@@H](C(=O)NCC(N)=O)NC(=O)[C@H](CC(=O)O)NC(=O)[C@H](C(C)C)NC(=O)[C@H](Cc2ccc(O)cc2)NC(=O)[C@H](C(C)C)NC(=O)[C@H](Cc2c[nH]c3ccccc23)NC(=O)[C@H](CC(=O)O)NC(=O)[C@H](CCCCN)NC(=O)[C@H](CC(N)=O)NC(=O)[C@H](CC(=O)O)NC(=O)[C@H](Cc2ccc(O)cc2)NC(=O)[C@H](CCCCN)NC(=O)[C@H](Cc2c[nH]cn2)NC(=O)[C@H](Cc2c[nH]c3ccccc23)NC(=O)[C@H](CC(C)C)NC1=O` [10-5] ({CH2CO}-YLLWHKYDNKDWVYVDCG-NH2; thioether N-17), for which the kd came out at 0.00694 s⁻¹ and the kon is 356000 M⁻¹ s⁻¹.

As to `CC(C)C[C@@H]1NC(=O)[C@H](Cc2ccc(O)cc2)NC(=O)[C@H](CCC(=O)O)NC(=O)[C@H](CC(=O)O)NC(=O)[C@H](CCCNC(=N)N)NC(=O)[C@H](Cc2ccc(O)cc2)NC(=O)[C@H](Cc2c[nH]c3ccccc23)NC(=O)[C@H](Cc2ccc(O)cc2)NC(=O)[C@H](Cc2ccc(O)cc2)NC(=O)[C@H](Cc2c[nH]c3ccccc23)NC(=O)[C@H](Cc2c[nH]c3ccccc23)NC(=O)[C@H](Cc2ccc(O)cc2)NC(=O)CSC[C@@H](C(=O)NCC(N)=O)NC(=O)[C@H](CCCNC(=N)N)NC(=O)[C@H]([C@@H](C)O)NC(=O)[C@H](CCCNC(=N)N)NC(=O)[C@H](Cc2c[nH]c3ccccc23)NC1=O` [10-6] ({CH2CO}-YWWYYWYRDEYLWRTRCG-NH2; thioether N-17), the kd was found to be 0.00489 s⁻¹ and the kon came to 22300 M⁻¹ s⁻¹.

For the compound `CC[C@H](C)[C@@H]1NC(=O)[C@H](Cc2ccc(O)cc2)NC(=O)CSC[C@@H](C(=O)NCC(N)=O)NC(=O)[C@@H]2CCCN2C(=O)[C@H](CCCNC(=N)N)NC(=O)[C@H](C(C)C)NC(=O)[C@H](Cc2ccccc2)NC(=O)[C@H](Cc2c[nH]c3ccccc23)NC(=O)[C@H](CC(=O)O)NC(=O)[C@H](CCCCN)NC(=O)[C@H](CO)NC(=O)[C@H](C)NC(=O)[C@H](Cc2ccc(O)cc2)NC(=O)[C@H](C)NC(=O)[C@H](Cc2ccccc2)NC(=O)[C@H](Cc2c[nH]c3ccccc23)NC(=O)[C@H](CO)NC1=O` [12-1] ({CH2CO}-YISWFAYASKDWFVRPCG-NH2; thioether N-17), the kd turned out to be 0.00254 s⁻¹, the “kd (quoted in text)” value was 2.54 × 10^–3 s^–1 and the kon turned out to be 79500 M⁻¹ s⁻¹.

Turning to `CC(C)[C@@H]1NC(=O)[C@H](CC(N)=O)NC(=O)CNC(=O)[C@H](CO)NC(=O)[C@H](Cc2c[nH]c3ccccc23)NC(=O)[C@H](CO)NC(=O)[C@H](Cc2ccc(O)cc2)NC(=O)[C@H](Cc2ccc(O)cc2)NC(=O)CSC[C@@H](C(=O)NCC(N)=O)NC(=O)[C@H](CO)NC(=O)[C@H](CC(N)=O)NC(=O)[C@H](Cc2c[nH]c3ccccc23)NC(=O)[C@H](CCCCN)NC(=O)[C@H](C(C)C)NC(=O)[C@H](CO)NC(=O)[C@H](CCC(=O)O)NC(=O)[C@H](CO)NC1=O` [12-2] ({CH2CO}-YYSWSGNVSESVKWNSCG-NH2; thioether N-17), the kd was found to be 0.00413 s⁻¹ and the kon was found to be 476000 M⁻¹ s⁻¹.

As to `CC[C@H](C)[C@@H]1NC(=O)[C@H](CCCCN)NC(=O)[C@@H](NC(=O)[C@H](CCC(=O)O)NC(=O)[C@@H](NC(=O)[C@H](Cc2c[nH]c3ccccc23)NC(=O)[C@H](CC(C)C)NC(=O)[C@@H]2CSCC(=O)N[C@@H](Cc3ccc(O)cc3)C(=O)N[C@@H](CC(N)=O)C(=O)N2)C(C)C)CSSC[C@@H](C(=O)NCC(N)=O)NC(=O)[C@H](CCCNC(=N)N)NC(=O)CNC(=O)[C@H](CC(N)=O)NC(=O)[C@@H]2CCCN2C(=O)[C@H](CC(C)C)NC(=O)[C@H](C(C)C)NC1=O` [12-4] ({CH2CO}-YNCLWVECKIVLPNGRCG-NH2; disulfide 8-17; thioether N-3), the kd stood at 0.00721 s⁻¹, the “kd (quoted in text)” value is recorded as 7.21 × 10^–3 s^–1 and the kon is 456000 M⁻¹ s⁻¹.

The record behind these values is article PMC11950852, “Diversity Scale of Library Matters: Impact of mRNA Library Diversity Scales on the Discovery of Macrocyclic Peptides Targeting a Protein by the RaPID System” (ACS Central Science, 2025).
